Assay results reported in patent US9434725B2, “5-azaindazole compounds and methods of use” (priority 2012, dated 2016).
Where a name gives a salt, the structure may show the parent alone. Read-outs that look alike come from different tables or passages of the source.

Tests used:
PIM2 = PIM2 (Homo sapiens (Human), UniProt Q9P1W9); experiment: Pim kinase binding activity, Caliper LC3000 microfluidic peptide phosphorylation assay, PIM2; format: biochemical; details: 10 μM ATP, 90 min, room temperature; read-out: PIM2 LC3K (KI)
In short: (§1)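 Read-out is microfluidic electrophoretic separation of phosphorylated from unphosphorylated fluorescent Pim peptide, with Ki calculated from conversion. Reactions ran 90 min at room temperature in HEPES pH 7.2 containing MgCl2, Tween 20 and DTT, ended by EDTA-containing buffer.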

[1] = tested on: MM1.S (multiple myeloma) cells; experiment: In vitro cell proliferation potency assay (Cell Titer Glo), MM1.S cells; format: cell-based; details: Homo sapiens, read-out: Prolif MM1S ATP (EC50)
Procedure: BaF3 parental line was obtained from the DSMZ repository. BaF3 lines transfected with PIM1 or PIM2 were generated. Mouse IL-3 was purchased from R&D Systems. G418 was purchased from Clontech. Media for BaF3 parental line contained RPMI, 10% FBS, 2 mM L-Glutamine, 2 ng/mL mIL-3. Media for BaF3 PIM1 & 2 lines contained RPMI, 10% FBS, 2 mM L-Glutamine, […]. Media for MM1.S (multiple myeloma cells) line contained RPMI, 10% FBS, 2 mM L-Glutamine.
BaF3, a murine interleukin-3 dependent pro-B cell line, parental cells, BaF3 PIM1 cells, BaF3 PIM2 cells, and MM1.S (multiple myeloma) cells were seeded at 2 k/well, 5 k/well, 5 k/well, and 10 k/well respectively, in a 384-well plate, at 45 μL/well. Test compound was added at 5 μL/well. BaF3 cells (parental and transfected) were incubated overnight, while MM1.S cells were incubated for 72 hours at 37° C., 5% CO2. CELL TITER GLO® Reagent (Promega) was added at 50 μL/well, the plates were incubated for 30 minutes, and their luminescence read on an HT Analyst. IC50/EC50 values for the test compound were calculated.

PIM1 = PIM1 (Homo sapiens (Human), UniProt P11309); experiment: biochemical; format: biochemical; details: 10 μM ATP, 90 min, room temperature; read-out: PIM1 LC3K (KI)
In short: as §1

PIM3 = PIM3 (Homo sapiens (Human), UniProt Q86V86); experiment: Pim kinase binding activity, Caliper LC3000 microfluidic peptide phosphorylation assay, PIM3; format: biochemical; details: 10 μM ATP, 90 min, room temperature; read-out: PIM3 LC3K (KI)
In short: as §1

BaF3 PIM1 cells = experiment: In vitro cell proliferation potency assay (Cell Titer Glo), BaF3 PIM1 cells; format: cell-based, murine; details: Mus musculus, BaF3, BaF3 cells transfected with PIM1, incubated overnight; read-out: Prolif BaF3_PIM 1 (IC50)
[2] = MM1.S, 72 h, MM1.S cells, 72 hours

Chain of PIM2 (Q9P1W9 whole entry): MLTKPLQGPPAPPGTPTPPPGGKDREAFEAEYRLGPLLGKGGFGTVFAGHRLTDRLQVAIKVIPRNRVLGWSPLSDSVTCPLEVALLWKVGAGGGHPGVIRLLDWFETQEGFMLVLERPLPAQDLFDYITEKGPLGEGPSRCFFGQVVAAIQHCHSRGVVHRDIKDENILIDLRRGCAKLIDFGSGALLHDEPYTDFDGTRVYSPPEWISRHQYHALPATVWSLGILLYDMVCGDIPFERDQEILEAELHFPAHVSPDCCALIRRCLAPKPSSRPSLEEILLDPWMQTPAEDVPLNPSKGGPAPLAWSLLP
Chain of PIM1 (P11309 whole entry): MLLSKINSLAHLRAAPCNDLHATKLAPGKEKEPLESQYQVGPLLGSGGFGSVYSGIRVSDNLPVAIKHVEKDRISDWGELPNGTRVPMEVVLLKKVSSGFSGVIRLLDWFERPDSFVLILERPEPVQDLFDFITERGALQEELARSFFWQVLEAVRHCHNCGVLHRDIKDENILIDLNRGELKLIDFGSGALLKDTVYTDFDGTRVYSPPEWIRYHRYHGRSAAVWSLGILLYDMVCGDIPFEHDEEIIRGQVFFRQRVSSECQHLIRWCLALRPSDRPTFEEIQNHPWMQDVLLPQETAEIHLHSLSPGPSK

Ki (PIM2) [nM]	Ki (PIM1) [nM]	Ki (PIM3) [nM]	IC50 (BaF3 PIM1 cells) [nM]	EC50 ([1]; MM1.S cells, 72 hours) [nM]	EC50 [1, 2] [nM]	Structure (SMILES)	EC50 ([1]; MM1.S, 72 h) [nM]
3.37	0.048	0.064	695	–	16000	OC1CN(c2cncc(-c3cc4c(cn3)cnn4-c3cccc(N4CCNCC4)n3)n2)C1 [Compound 281, 1-(6-(1-(6-(piperazin-1-yl)pyridin-2-yl)-1H-pyrazolo[4,3-c]pyridin-6-yl)pyrazin-2-yl)azetidin-3-ol]	–
1.83	0.02	0.025	385	–	4600	c1cc(N2CCNCC2)nc(-n2ncc3cnc(-c4cncc(N5CCC5)n4)cc32)c1 [Compound 284, 6-(6-(azetidin-1-yl)pyrazin-2-yl)-1-(6-(piperazin-1-yl)pyridin-2-yl)-1H-pyrazolo[4,3-c]pyridine]	–
1.48	0.061	0.112	976	7200	–	Cc1cncc(-c2cc3c(cn2)cnn3-c2cccc(N3CCCC4(CNC4)C3)n2)n1 [Compound 293, 1-(6-(2,6-diazaspiro[3.5]nonan-6-yl)pyridin-2-yl)-6-(6-methylpyrazin-2-yl)-1H-pyrazolo[4,3-c]pyndine]	–
1.43	0.256	0.144	425	10900	–	COC1(c2cccc(-n3ncc4cnc(-c5cncc(C)n5)cc43)n2)CCCNC1 (stereo not shown) [Compound 295, 1-(6-(3-methoxypiperidin-3-yl)pyridin-2-yl)-6-(6-methylpyrazin-2-yl)-1H-pyrazolo[4,3-c]pyridine]	–
0.446	0.034	0.018	781	4000	–	OCCCc1cncc(-c2cc3c(cn2)cnn3-c2cccc(N3CCNCC3)n2)n1 [Compound 301, 3-(6-(1-(6-(piperazin-1-yl)pyridin-2-yl)-1H-pyrazolo[4,3-c]pyridin-6-yl)pyrazin-2-yl)propan-1-ol]	–
0.744	0.094	0.07	255	1200	–	N[C@H]1CCC[C@@H]1Oc1cncc(-c2cc3c(cn2)cnn3-c2ccccn2)n1 [Compound 304, (1S,2S)-2-(6-(1-(pyridin-2-yl)-1H-pyrazolo[4,3-c]pyridin-6-yl)pyrazin-2-yloxy)cyclopentanamine]	–
2.97	0.12	0.098	640	–	2900	N[C@H]1CCC[C@@H]1Nc1cncc(-c2cc3c(cn2)cnn3-c2ccccn2)n1 [Compound 307, (1S,2S)-N1-(6-(1-(pyridin-2-yl)-1H-pyrazolo[4,3-c]pyridin-6-yl)pyrazin-2-yl)cyclopentane-1,2-diamine]	–
1.72	0.136	0.057	2000	–	696	C#Cc1cncc(-c2cc3c(cn2)cnn3-c2cccc(N3CCNCC3)n2)n1 [Compound 315, 6-(6-ethynylpyrazin-2-yl)-1-(6-(piperazin-1-yl)pyridin-2-yl)-1H-pyrazolo[4,3-c]pyridine]	–
336	15.5	47.5	> 25000	–	> 25000	Cn1ncc(-c2cc3c(cn2)cnn3-c2ccccc2F)c1N1CCC(N)CC1 [Compound 316, 1-(4-(1-(2-fluorophenyl)-1H-pyrazolo[4,3-c]pyridin-6-yl)-1-methyl-1H-pyrazol-5-yl)piperidin-4-amine]	–

Structure (SMILES)	Ki (PIM2) [nM]	Ki (PIM1) [nM]	Ki (PIM3) [nM]	IC50 (BaF3 PIM1 cells) [nM]	EC50 ([1]; MM1.S cells, 72 hours) [nM]	EC50 [1, 2] [nM]	EC50 ([1]; MM1.S, 72 h) [nM]
OCCOc1cncc(-c2cc3c(cn2)cnn3-c2cccc(N3CCNCC3)n2)n1 [Compound 278, 2-((6-(1-(6-(piperazin-1-yl)pyridin-2-yl)-1H-pyrazolo[4,3-c]pyridin-6-yl)pyrazin-2-yl)oxy)ethanol dihydrochloride]	2.62	0.163	0.105	261	–	–	> 6200
FC(F)c1cncc(-c2cc3c(cn2)cnn3-c2cccc(N3CCNCC3)n2)n1 [Compound 279, 6-(6-(difluoromethyl)pyrazin-2-yl)-1-(6-(piperazin-1-yl)pyridin-2-yl)-1H-pyrazolo[4,3-c]pyridine trifluoroacetate]	3.99	0.229	0.132	622	2300	–	–
